Each structure is given as a SMILES string. Entries after “also recorded” stand apart in the source; their conditions may differ.

One assay concerns protein kinase G (PKG). Description: Phospho-VASP immunoblotting for PKG activity in stellate cells alone or cocultured with sinusoidal endothelial cells. Format: cell-based, rat. As to the method:
(§1) For coculture experiments, freshly isolated stellate cells and freshly isolated sinusoidal endothelial cells were isolated separately and mixed together on collagen-coated plates and cultured for 5 days. Sinusoidal endothelial cells were plated at a density of 200,000 cells/cm2, and stellate cells were at a density of 65,000 cells/cm2.
(§2) Immunoblotting, Immunoblotting was performed by using specified primary antibodies, including anti-eNOS antibody (1:1,000; BD Transduction Laboratories, San Jose, Calif.), anti-phospho-eNOS-Ser^1177 (1:1,000; BD Transduction Laboratories or Cell Signaling Technology), anti-phospho-Akt, anti-Akt (Cell Signaling Technology, Beverly, Mass.), and horseradish peroxidase-conjugated secondary antibody. Specific signals were visualized using enhanced chemiluminescence as per the manufacturer's instructions and were scanned and quantitated with standard software.
(In general: Immunoblotting shows a protein as a band on a membrane.)

The next assay relates to eNOS. Description: eNOS phosphorylation (Ser1177) and total eNOS by immunoblotting in sinusoidal endothelial cells. The assay is classed as cell-based, rat. Here is the method:
(§3) Cell isolation and culture. Sinusoidal endothelial cells were isolated from male Sprague-Dawley rats (450-500 g) (Harlan, Indianapolis, Ind.). In brief, after in situ perfusion of the liver with 20 mg/100 mg pronase (Roche Molecular Biochemicals, Indianapolis, Ind.), followed by collagenase (Worthington Biochemical, Lakewood, N.J.), dispersed cell suspensions were removed from a layered discontinuous density gradient of 8.2 and 15.6% Accudenz (Accurate Chemical and Scientific, Westbury, N.Y.), further purified by centrifugal elutriation (18 ml/min flow), and were grown in medium containing 20% serum (10% horse/calf). The purity of endothelial cells was documented by their uptake of fluorescently labeled di-l-acetoacetylated low-density lipoprotein as described (21). Only primary sinusoidal endothelial isolates of >95% purity were used for study. Experiments were performed with cells frorrr a minimum three different isolations (for all experiments).
as §2
(§4) Animal model of liver injury and portal hypedension. Liver injury and portal hypertension were induced by performing bile duct ligation in 450- to 500-gram male retired breeder Sprague-Dawley rats as described in Liu and 20- to 25-gram male BALB/c mice. Briefly, bile duct ligation was performed by surgical isolation and ligation of the common bile duct. This model creates a portal-based fibrogenic response and portal hypertension 10-14 days after surgery (Liu). For study of injured sinusoidal endothelial cells, we used the rat model of bile duct ligation (10-14 days postsurgery); for in vivo study (primarily to conserve the use of active compound), we used the mouse model of bile duct ligation (examining portal pressure 4 wk postsurgery). In sham-operated rats or mice, laparotomy without isolation and section of the bile duct was performed. Studies were approved by the local Institutional Animal Care and Use Committees. Portal pressure measurement. Portal hypertension was induced in male BALB/c mice by bile duct ligation as above. Cicletanine (5 mg·kg^−1·day^−1) or vehicle was given by gavage as a single daily dose for 10 days before portal pressure measurement as described in Liue. In brief, mice were anesthetized, and an intravenous catheter (Becton Dickinson Vascular Access, Sandy, Utah) was introduced in the portal vein and secured with a silk tie. A calibrated low-pressure transducer (Digi-Med, Louisville, Ky.) was connected to the portal vein catheter, and portal pressure was recorded continuously using the Digi-Med Integrator 200 System (Digi-bled).

The next assay concerns Erk1/2. Description: Erk phosphorylation by immunoblotting in sinusoidal endothelial cells. The assay is classed as cell-based, rat. The settings on record: 2 h. As to the method:
as §3, with “Only primary sinusoidal endothelial isolates of >95% purity were used for study. Experiments were performed with cells frorrr a minimum three different isolations (for all experiments).” left out
Immunoblotting, Immunoblotting was performed by using specified primary antibodies, including anti-eNOS antibody (1:1,000; BD Transduction Laboratories, San Jose, Calif.), anti-phospho-eNOS-Ser^1177 (1:1,000; BD Transduction Laboratories or Cell Signaling Technology), anti-phospho-Akt, anti-Akt (Cell Signaling Technology, Beverly, Mass.), and horseradish peroxidase-conjugated secondary antibody. Specific signals were visualized using enhanced chemiluminescence as per the manufacturer's instructions and were scanned and quantitated with standard software. […]

Another assay relates to protein kinase B (Akt). Description: Akt phosphorylation (Ser473) and total Akt by immunoblotting in sinusoidal endothelial cells. Format: cell-based, rat. Here is the method:
as §3, §2
Animal model of liver injury and portal hypedension. Liver injury and portal hypertension were induced by performing bile duct ligation in 450- to 500-gram male retired breeder Sprague-Dawley rats as described in Liu and 20- to 25-gram male BALB/c mice. Briefly, bile duct ligation was performed by surgical isolation and ligation of the common bile duct. […] A calibrated low-pressure transducer (Digi-Med, Louisville, Ky.) was connected to the portal vein catheter, and portal pressure was recorded continuously using the Digi-Med Integrator 200 System (Digi-bled).

Assay [1] relates to bile duct-ligated (BDL) mice. Description: Portal pressure measurement in bile duct-ligated and sham-operated mice. The assay is classed as in vivo, BALB/c mice. The settings on record: 5 mg·kg−1·day−1 by gavage for 10 days. As to the method:
as §4, with “In brief, mice were anesthetized, and an intravenous catheter (Becton Dickinson Vascular Access, Sandy, Utah) was introduced in the portal vein and secured with a silk tie.” left out

The next assay deals with hepatic stellate cells. Kind of assay: Collagen lattice assay (ET-1 stimulated stellate cell contraction, coculture with sinusoidal endothelial cells). The assay is classed as cell-based, rat. The settings on record: 50 or 100 nM 2 h, then ET-1 10 nM; coculture on collagen lattices. As to the method:
as §1
Collagen lattice assay. Contraction of hepatic stellate cells was performed as previously described with minor modifications (25). Briefly, individual wells of a 24-well culture dish were incubated with PBS containing 1% BSA (500 μl/well) for 1 h at 37° C. and then washed two times with PBS and allowed to air dry. Collagen gels were prepared by mixing 60% type I tail collagen (Upstate Laboratories), 10% 10×MEM (GIBCO), 10% 0.2 HEPES, and 20% DMEM (GIBCO) to make a final concentration of collagen of 2.4 mg/ml. The solution was added to the culture wells and incubated for 1 h at 37° C., and hepatic stellate cells and sinusoidal endothelial cells were isolated separately from normal rat livers and cocultured (each at a density of 100,000 cells/lattice) on collagen lattices for 5 days. Cells were changed to serum-free medium overnight, then exposed to cicletanine, and then stimulated with endothelin-1 (ET-1, 10 nM). Collagen lattices were released from their substrata, and gel contraction was measured from 0 to 30 min.

The test system of assay [2] is NO production in sinusoidal endothelial cells. Kind of assay: NO measurement (nitrite in conditioned medium of sinusoidal endothelial cells). The assay is classed as cell-based, rat. As to the method:
as §3, §4
NO measurement. To assess NO production, we analyzed the release of nitrite, the stable breakdown product of NO, using a nitrite/nitrate assay kit (Cayman Chemicals, Ann Arbor, Mich.), following the manufacturer's instructions. Briefly, conditioned medium from sinusoidal endothelial cells with or without cicletanine treatment were loaded on a 96-well plate and mixed with both enzyme cofactor and nitrate reductase. After incubation at room temperature for 3 h, 100 μl Griess reagent mix were added to each well. After 10 more minutes at room temperature, the absorbance of each well was determined on a microplate reader at 540 nm, and the nitrite concentrations were deduced from a standard curve.

[3] abbreviates: cicletanine 100 nM, normal sinusoidal endothelial cells.
The mark [4] stands for this setting: sinusoidal endothelial cells injured by bile duct ligation, 2 h.
The mark [5] stands for this setting: 50 or 100 nM, normal sinusoidal endothelial cells.

On to `Cc1ncc2c(c1O)COC2c1ccc(Cl)cc1` (centres unmarked) [cicletanine, 3-(4-chlorophenyl)-1,3-dihydro-7-hydroxy-6-methylfuro-(3,4-c) pyridine], for which the VASP phosphorylation result in the assay on protein kinase G (PKG) (stellate cells alone) is recorded as “did not alter”; in the assay with protein kinase G (PKG) (stellate cells cocultured with sinusoidal endothelial cells), “stimulated”. For the same molecule, in the assay on eNOS (50 or 100 nM, 2 h, normal sinusoidal endothelial cells), the “phosphorylation of eNOS, dose dependence” value is “increased in a dose-dependent manner”. Besides, in the assay with eNOS (cicletanine 100 nM, 0-4 h), the “time after exposure of greatest eNOS phosphorylation” value came to 1 h. In addition, the “eNOS phosphorylation at Ser1177” value with eNOS (setting [3]) was “stimulated; also recorded: increased”. Besides, in the assay on eNOS (setting [3]), the “total eNOS expression” value was “unchanged”. The eNOS phosphorylation result in the assay with eNOS (setting [4]) is recorded as “restored eNOS phosphorylation to above basal levels”. In the assay on Erk1/2 (setting [5]), the “phosphorylation of Erk” value is recorded as “increased in a dose-dependent manner; also recorded: robustly induced”. In addition, in the assay with Erk1/2 (sinusoidal endothelial cells injured by bile duct ligation), the Erk1/2 phosphorylation result is reported as “increased”. For the same molecule, in the assay on protein kinase B (Akt) (setting [5]), the “Akt phosphorylation at Ser473” value is reported as “increased”. Also, in the assay on protein kinase B (Akt) (normal sinusoidal endothelial cells), the “total Akt expression” value was “without a change”. For the same molecule, the Akt phosphorylation result with protein kinase B (Akt) (setting [4]) is reported as “restored Akt phosphorylation to above normal levels”. The portal pressure result was “significantly reduced” in assay [1] (BDL mice); “Slight and nonsignificant decreases” in assay [1] (sham-operated mice). For the same molecule, in the assay with hepatic stellate cells, the stellate cell contraction result is recorded as “inhibited stellate cell contraction in a dose-dependent manner”. Moreover, the “dose dependence of effect on nitrite production” value in assay [2] (50 or 100 nM, 2 h) is recorded as “dose dependent”. Besides, the “nitrite levels in conditioned medium” value in assay [2] (2 h exposure, normal sinusoidal endothelial cells) is given as “significantly increased”. Moreover, the nitrite production result is “stimulated” in assay [2] (cells transduced with adenovirus 24 h, then cicletanine 100 nM 2 h) and “increase” in assay [2] (setting [4]). Moreover, in assay [2] (cicletanine 100 nM, 0-4 h), the “time at which nitrite levels started to increase” value amounted to 30 min.

Values taken from patent publication US20170056380A1, “Systems, Methods, Techniques, and Compounds in Research and Treatment of Portal Hypertension and other Conditions” (priority 2014, published 2017).
